From PubChem BioAssay AID1918933 (Molecular Pharmacology Branch, DTP, NCI, 2023)

Test system: 186277-243-T-J2-PDC complex spheroid viability
Test: Anticancer human tumor 186277-243-T-J2-PDC patient-derived colon adenocarcinoma cell line growth inhibition
Conditions: for IC50: curve of first compound; for viability, T/C: stronger effect = lower value; active = viability on the fitted dose curve at most 10% of control; inactive = the rest
Summary of the method: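 Multicellular complex spheroids of tumor cells with human endothelial cells (HUVEC) and mesenchymal stem cells; the LSD1 inhibitor iadademstat was combined with standard-of-care or investigational agents. Top concentration at or near clinical Cmax, half-log dilutions; final DMSO ≤0.25%.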

[1] = second compound 0.1 µM, first compound 0.0316 µM
[2] = second compound 0.1 µM, first compound 0.1 µM
[3] = second compound 0.1 µM, first compound 0.316 µM
[4] = second compound 0.1 µM, first compound 1 µM
[5] = second compound 0.1 µM, first compound 3.16 µM
[6] = second compound 0.1 µM, first compound 10 µM
[7] = second compound 0.316 µM, first compound 0.0316 µM
[8] = second compound 0.316 µM, first compound 0.1 µM
[9] = second compound 0.316 µM, first compound 0.316 µM
[10] = second compound 0.316 µM, first compound 1 µM
[11] = second compound 0.316 µM, first compound 3.16 µM
[12] = second compound 0.316 µM, first compound 10 µM
[13] = second compound 1 µM, first compound 0.0316 µM
[14] = second compound 1 µM, first compound 0.1 µM
[15] = second compound 1 µM, first compound 0.316 µM
[16] = second compound 1 µM, first compound 1 µM
[17] = second compound 1 µM, first compound 3.16 µM
[18] = second compound 1 µM, first compound 10 µM
[19] = second compound 3.16 µM, first compound 0.0316 µM
[20] = second compound 3.16 µM, first compound 0.1 µM
[21] = second compound 3.16 µM, first compound 0.316 µM
[22] = second compound 3.16 µM, first compound 1 µM
[23] = second compound 3.16 µM, first compound 3.16 µM
[24] = second compound 3.16 µM, first compound 10 µM
[25] = second compound 10 µM, first compound 0.0316 µM
[26] = second compound 10 µM, first compound 0.1 µM
[27] = second compound 10 µM, first compound 0.316 µM
[28] = second compound 10 µM, first compound 1 µM
[29] = second compound 10 µM, first compound 3.16 µM
[30] = second compound 10 µM, first compound 10 µM
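Note: 7 day exposure to compounds.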
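Throughout, for viability, T/C: 100% = DMSO vehicle control viability.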

CC(C)c1c(-c2ccccc2)nc2c(C#N)c[nH]n2c1=O + NC1CCC(NC2CC2c2ccccc2)CC1
> 10000 nM: IC50 (second compound 0.1 µM) | IC50 (second compound 0.316 µM) | IC50 (second compound 1 µM) | IC50 (second compound 3.16 µM) | IC50 (second compound 10 µM)
inactive: viability, T/C [1] 112% | viability, T/C [2] 118% | viability, T/C [3] 114% | viability, T/C [4] 105% | viability, T/C [5] 114% | viability, T/C [6] 103% | viability, T/C [7] 108% | viability, T/C [8] 125% | viability, T/C [9] 115% | viability, T/C [10] 115% | viability, T/C [11] 108% | viability, T/C [12] 96.8% | viability, T/C [13] 110% | viability, T/C [14] 110% | viability, T/C [15] 108% | viability, T/C [16] 112% | viability, T/C [17] 109% | viability, T/C [18] 106% | viability, T/C [19] 112% | viability, T/C [20] 119% | viability, T/C [21] 112% | viability, T/C [22] 121% | viability, T/C [23] 107% | viability, T/C [24] 105% | viability, T/C [25] 104% | viability, T/C [26] 101% | viability, T/C [27] 107% | viability, T/C [28] 110% | viability, T/C [29] 101% | viability, T/C [30] 90.5%

NS(=O)(=O)OCC1CC(n2ccc3c(NC4CCc5ccccc54)ncnc32)CC1O (stereo not given) + NC1CCC(NC2CC2c2ccccc2)CC1
474 nM: IC50 (second compound 0.316 µM)
inactive: viability, T/C (second compound 0.1 µM, first compound 0.00949 µM) 113% | viability, T/C (second compound 0.1 µM, first compound 0.03 µM) 96.2% | viability, T/C (second compound 0.1 µM, first compound 0.0949 µM) 85.8% | viability, T/C (second compound 0.1 µM, first compound 0.3 µM) 65.8% | viability, T/C (second compound 0.1 µM, first compound 0.949 µM) 33.2% | viability, T/C (second compound 0.316 µM, first compound 0.00949 µM) 126% | viability, T/C (second compound 0.316 µM, first compound 0.03 µM) 112% | viability, T/C (second compound 0.316 µM, first compound 0.0949 µM) 97.3% | viability, T/C (second compound 0.316 µM, first compound 0.3 µM) 63% | viability, T/C (second compound 0.316 µM, first compound 0.949 µM) 29.6% | viability, T/C (second compound 0.316 µM, first compound 3 µM) 12.1% | viability, T/C (second compound 1 µM, first compound 0.00949 µM) 121% | viability, T/C (second compound 1 µM, first compound 0.03 µM) 103% | viability, T/C (second compound 1 µM, first compound 0.0949 µM) 103% | viability, T/C (second compound 1 µM, first compound 0.3 µM) 58.1% | viability, T/C (second compound 1 µM, first compound 0.949 µM) 38.1% | viability, T/C (second compound 1 µM, first compound 3 µM) 15.6% | viability, T/C (second compound 3.16 µM, first compound 0.00949 µM) 113% | viability, T/C (second compound 3.16 µM, first compound 0.03 µM) 113% | viability, T/C (second compound 3.16 µM, first compound 0.0949 µM) 97.3% | viability, T/C (second compound 3.16 µM, first compound 0.3 µM) 71.2% | viability, T/C (second compound 3.16 µM, first compound 0.949 µM) 42.5% | viability, T/C (second compound 3.16 µM, first compound 3 µM) 14% | viability, T/C (second compound 10 µM, first compound 0.00949 µM) 112% | viability, T/C (second compound 10 µM, first compound 0.03 µM) 102% | viability, T/C (second compound 10 µM, first compound 0.0949 µM) 92.8% | viability, T/C (second compound 10 µM, first compound 0.3 µM) 73% | viability, T/C (second compound 10 µM, first compound 0.949 µM) 49.8% | viability, T/C (second compound 10 µM, first compound 3 µM) 15.1%
518 nM: IC50 (second compound 1 µM)
907 nM: IC50 (second compound 10 µM)
521 nM: IC50 (second compound 0.1 µM)
686 nM: IC50 (second compound 3.16 µM)
active: viability, T/C (second compound 0.1 µM, first compound 3 µM) 9.95%

CC1COCCN1c1cc(C2(S(C)(=N)=O)CC2)nc(-c2ccnc3[nH]ccc23)n1 (stereo not given) + NC1CC1c1ccc(-c2cccc(O)c2)cc1
1190 nM: IC50 (second compound 3.16 µM)
1140 nM: IC50 (second compound 0.316 µM)
872 nM: IC50 (second compound 10 µM)
1270 nM: IC50 (second compound 1 µM)
active: viability, T/C [5] 9.5% | viability, T/C [6] 5.47% | viability, T/C [12] 5.49% | viability, T/C [18] 5.36% | viability, T/C [23] 11.6% | viability, T/C [24] 6.19% | viability, T/C [29] 8% | viability, T/C [30] 4.85%
inactive: viability, T/C [1] 102% | viability, T/C [2] 99.8% | viability, T/C [3] 99.6% | viability, T/C [4] 52.1% | viability, T/C [7] 95.4% | viability, T/C [8] 97.8% | viability, T/C [9] 92.2% | viability, T/C [10] 55% | viability, T/C [11] 10.5% | viability, T/C [13] 108% | viability, T/C [14] 108% | viability, T/C [15] 105% | viability, T/C [16] 59.5% | viability, T/C [17] 12.5% | viability, T/C [19] 104% | viability, T/C [20] 104% | viability, T/C [21] 109% | viability, T/C [22] 57.5% | viability, T/C [25] 106% | viability, T/C [26] 89.6% | viability, T/C [27] 92.7% | viability, T/C [28] 44.3%
1060 nM: IC50 (second compound 0.1 µM)
